Experimental data as given in patent US20130191934A1, “TREATMENT OF SYMPTOMS ASSOCIATED WITH MENOPAUSE” (INDIANA UNIVERSITY RESEARCH AND TECHNOLOGY CORPORA, priority 2010, published 2013).
Entries after “also recorded” stand apart in the source; their conditions may differ.

Tests used:
ORX1 and ORX2 receptors = details: cited from earlier work
[1] = under investigation for insomnia; cited from earlier work
OVEX'ed rats = details: cited from earlier work; for anxiety behaviors in the elevated plus maze (EPM) and open field tests (OFT): OVEX'ed rats; for block of the anxiety induced by OVEXing a female rat: daily s.c.: E2 0.25 mg/kg, DPN 1.0 mg/kg, PPT 1.0 mg/kg, Walf et al., 2010
[2] = test system: adult female rats (OVEX or tamoxifen); assay: Open field anxiety test in tamoxifen-treated or ovariectomized female rats; assay type: in vivo, rat; details: for anxiety-like behavior (time spent in center of open field) in OVEX rats: 30 mg/kg i.p. 30 min prior to testing, OVEX female rats, FIG. 3B
Experimental: FIG. 3A & 3B are bar graphs showing the effects of subcutaneously injecting adult female rats with 3 days of vehicles (10% DMSO, 90% sesame oil) or 10 mg/kg tamaoxifen (a nonselective estrogen receptor antagonist) on time spent in the center of an open field. * represents p,0.05 with unpaired t-test. n=6/group. […] Bars represent mean and error bars represent SEM. * represents p,0.05 Mann Whitney U test following an ANOVA f(3,35)=2.9, p=0.048.
Furthermore, experiments were conducted to investigate the impact of lowering estrogen activity by either administering tamoxifen or ovariectomizing rats.

panic-prone rats = assay: Sodium lactate challenge in panic-prone (l-allylglycine) rats; assay type: in vivo, rat; details: for anxiety-like responses (social interaction duration) after sodium lactate: 30 mg/kg i.p. before 15 min i.v. 0.5M sodium lactate, FIG. 1b; for lactate induced increases in core body temperature / lactate induced increases in heart rate: 30 mg/kg i.p.; for lactate induced increases in core body temperature: FIG. 1c; for lactate induced increases in heart rate: FIG. 1d
Text: Panic disorder is associated with disruption of central inhibitory gamma-aminobutyric acid (GABAergic) tone, and may contribute to panic attacks which are consistently provoked by ordinarily mild physical stressors such as mild osmotic disturbances (e.g., intravenous sodium lactate challenges).
Orexin/hypocretin producing neurons are almost exclusive to dorsomedial hypothalamus and adjacent lateral hypothalamus, and play a critical role in maintaining wakefulness, vigilance and central sympathetic mobilization, which are key components of panic and anxiety. Experiments were conducted to investigate whether the administration of either a systemic orexin 1 antagonist or silencing the hypothalamic orexin gene product with RNA interference could block lactate-induced panic responses.

[3] = test system: female ovariectomized, or sham-OVEX control, rats; assay: Hypercapnia (20% CO2) challenge, tail skin temperature in OVEX rats; assay type: in vivo, rat; details: 30 mg/kg pretreatment
Text: Hypercapnia model: There is also evidence that altered respiration patterns may trigger hot flashes whereas paced respiration may alleviate hot flash incidence and intensity. Increased or decreased respiration activity alters blood CO2/pH levels, and a hypersensitivity to CO2/pH may be present in conditions where estrogen activity is very low.

[4] = 30 mg/kg intraperitoneal; cited from earlier work
[5] = test system: dorsomedial hypothalamus (DMH) of anesthetized rat; assay: BMI microinjection into the DMH of anesthetized rats; assay type: in vivo; details: 30 mg/kg i.p.; BMI 20 pmol/50 nL into DMH; FIG. 2; listed as SB334861
Experimental: FIG. 2 Continuous and simultaneous measurement of blood pressure (top panel), heart rate (middle panel), and core body temperature (bottom panel) in an isoflurane anesthetized rat after identical microinjections of BMI (20 pmol/50 nL) into the DMH (time marks 1 and 3) before and after systemic administration of the orexin-1 receptor antagonist SB334861 (30 mg/kg i.p.; time mark 2).
As disclosed herein, experiments were conducted to determine whether an orexin-1 receptor antagonist (SB334861) or an orexin-2 receptor antagonist (TCSOX229) could attenuate the physiologic responses to chemical stimulation of the DMH. Chemical stimulation or disinhibition of neurons in the region of the dorsomedial hypothalamus (DMH) was conducted using the GABAA receptor antagonist bicuculline methiodide (BMI). To test orexin inhibitors ability to attenuate the BMI stimulated response, BMI was microinjected (20 pmol/50 nL) into the DMH of urethane-anesthetized rats both before and after systemic administration of the orexin inhibitor, and the responses were monitored.

menopausal women = details: cited from earlier work
ORX-ir neurons = assay: c-Fos induction in ORX-ir neurons after yohimbine; assay type: in vivo, rat; details: 5 mg/kg i.p.; male rats; FIG. 5A
Text: (§1) FIG. 5A & 5B are graphs showing the effects of yohimbine on cellular responses. […] Black and gray outlined bars respectively represent c-FOS/ORX double and total ORX-ir labeled neurons in the hypothalamus. *Mann-whiney U=1.5, p=0.001. […] Treatment by time effect F(89,267)=2.7, p<0.001.
(§2) Conversely, administering intravenous infusions of yohimbine (alpha2-adrenergic autoreceptor antagonist) to symptomatic, but not asymptomatic, menopausal women provokes “hot flashes” (Freedman et al, Obstet Gynecol, 1990. 76(4): p. 573-8). […] A dramatic drop in core body temp also immediately follows this, which also occurs in women following the onset of a hot flash.

[6] = test system: female ovariectomized rats; assay: Yohimbine challenge, tail skin and core body temperature in OVEX rats; assay type: in vivo, rat; details: 5 mg/kg i.p.
Experimental: as §1
To objectively measure “hot flash” (assessed by tail temp) related activity in female OVEX rats, magnetically activated radiotelemetry probes (dimensions: 3.5 cc volume with 0.05° C. resolution) were implanted subcutaneously under the skin on the back of rat. The probe has 2 leads, each with an ˜1 cm long temp sensor that can be implanted in the tail and into the abdominal cavity to respectively measure skin and core body temp (as well as general ambulatory activity) in freely moving rats for extended periods. Recently we used the dual thermistor probes and were able to replicate previous findings that tail temp decreases during active phase in sham-OVEX rats, but this decrease is blunted in OVEX rats (FIG. 4B).
as §2

[7] = listed as orexin 1 receptor antagonist
[8] = OVEX rats, 5 min 20% CO2, FIG. 6B

Structure (SMILES): CNC(=O)[C@@H](c1ccccc1)N1CCc2cc(OC)c(OC)cc2[C@@H]1CCc1ccc(C(F)(F)F)cc1 [Almorexant]
- mode of orexin receptor antagonism (ORX1 and ORX2 receptors): competitive, dual ORX1 and ORX2 receptor antagonists
- safety and side effects in phase III trials [1]: safe, have few side effects

Structure (SMILES): N#CC(Cc1ccc(O)cc1)c1ccc(O)cc1 (stereo not drawn) [DPN, diarylpropionitrile]
- anxiety behaviors in the elevated plus maze (EPM) and open field tests (OFT) (OVEX'ed rats): decreased anxiety behaviors
- block of the anxiety induced by OVEXing a female rat (OVEX'ed rats): block the anxiety

Structure (SMILES): C[C@]12CC[C@@H]3c4ccc(O)cc4CC[C@H]3[C@@H]1CC[C@@H]2O [E2, 17-β-estradiol]
- anxiety behaviors in the elevated plus maze (EPM) and open field tests (OFT) (OVEX'ed rats): decreased anxiety behaviors
- block of the anxiety induced by OVEXing a female rat (OVEX'ed rats): block the anxiety

Structure (SMILES): Cc1ccc(-n2nccn2)c(C(=O)N2CCN(c3nc4cc(Cl)ccc4o3)CC[C@H]2C)c1 [MK4305]
- mode of orexin receptor antagonism (ORX1 and ORX2 receptors): competitive, dual ORX1 and ORX2 receptor antagonists
- safety and side effects in phase III trials [1]: safe, have few side effects

Structure (SMILES): CCCc1c(-c2ccc(O)cc2)nn(-c2ccc(O)cc2)c1-c1ccc(O)cc1 [PPT, Tris(4-hydroxyphenyl)-4-propyl-1Hpyrazole]
- anxiety behaviors in the elevated plus maze (EPM) and open field tests (OFT) (OVEX'ed rats): increase anxiety behaviors
- block of the anxiety induced by OVEXing a female rat (OVEX'ed rats): not

Structure (SMILES): Cc1nc2ccc(NC(=O)Nc3ccnc4cccnc34)cc2o1 [SB334867, 1-(2-methylbenzoxazol-6-yl)-3-[1,5]naphthyridin-4-yl urea]
- anxiety-like behavior (time spent in center of open field) in OVEX rats [2]: reverses anxiogenic effects
- anxiety-like behavior (time spent in center of open field) in OVEX rats ([2]; listed as ORX 1 receptor antagonist): reverse the anxiogenic effects of OVEX
- anxiety-like responses (social interaction duration) after sodium lactate (panic-prone rats): Blocks; also recorded: attenuated
- anxiety-like responses (social interaction duration) after sodium lactate (panic-prone rats; [7]): blocks
- lactate induced increases in core body temperature (panic-prone rats): block; also recorded: attenuated
- lactate induced increases in core body temperature (panic-prone rats; [7]): blocks
- lactate induced increases in heart rate (panic-prone rats): attenuated
- lactate induced increases in heart rate (panic-prone rats; [7]): blocks
- intensity of the hot flash (tail skin temperature) after 20% CO2 [3, 8]: reduces the intensity
- onset of the hot flash (tail skin temperature) after 20% CO2 [3, 8]: delays the onset
- baseline levels of tail temp in controls ([3]; sham-OVEX controls): reduced baseline levels of tail temp
- crossing of blood brain barrier [4]: crosses blood brain barrier
- duration of central activity [4]: > 4 h
- BMI-evoked increase in blood pressure [5]: significant attenuation
- BMI-evoked increase in core body temperature [5]: significant attenuation
- BMI-evoked increase in heart rate [5]: significant attenuation

Structure (SMILES): Cc1nnc2n1-c1ccc(Cl)cc1C(c1ccccc1)=NC2 [alprazolam]
- lactate-induced responses versus vehicle treated groups (Fisher's LSD, p<0.05) (panic-prone rats; alprazolam 3 mg/kg i.p., FIG. 1): significant differences

Structure (SMILES): Clc1cccc(Cl)c1N=C1NCCN1 [clonidine]
- incidence of hot flashes in menopausal women (menopausal women; Freedman et al, 1990): reduce the incidence

Structure (SMILES): CC/C(=C(\c1ccccc1)c1ccc(OCCN(C)C)cc1)c1ccccc1 [tamoxifen]
- anxiety-like behavior (time spent in center of open field) compared to controls ([2]; tamoxifen 10 mg/kg s.c., 3 days, adult female rats, FIG. 3A): increased anxiety-like behavior

Structure (SMILES): COC(=O)[C@@H]1[C@H]2C[C@H]3c4[nH]c5ccccc5c4CCN3C[C@@H]2CC[C@@H]1O [yohimbine]
- cellular responses (c-Fos induction) in ORX neurons (ORX-ir neurons): increase cellular activity in ORX neurons
- tail skin temperature ([6]; female OVEX vs sham-OVEX rats, FIG. 5B): rapidly increase tail skin temp in female OVEX, but not sham OVEX control rats
- core body temp following tail skin temp increase ([6]; yohimbine challenge): dramatic drop
- provocation of hot flashes (menopausal women; intravenous infusions, symptomatic, but not asymptomatic, menopausal women): provokes
